Data on one substance can be found in patent US6984656B2, “Core modified porphyrins” (priority 2001, dated 2006).

One data set has as its system Colo-26 cells. Description: Dark and light-induced toxicity toward Colo-26 cells in culture. The data set is classed as cell-based, murine.
The nature of data set [1]: Tissue distribution by fluorescence in tumor-bearing BALB/c mice. As to conditions: mouse, in vivo. The method, then: At various times after sensitizer administration, animals were sacrificed and sensitizer levels determined by direct extraction. In tumor-bearing animals (BALB/c mice or female Fischer rats), the concentration of sensitizer was determined by fluorescence spectroscopy where possible. At various time points post-injection of 5 μmol/kg of sensitizer or 90% of the LD10 (whichever is smaller), tissues were removed, weighed, homogenized, and frozen in liquid nitrogen (3-5 animals per time point). The homogenate, after thawing, was taken up in Solvable and the emission from sensitizer was quantified in terms of ng of sensitizer/mg of protein. With non-fluorescent sensitizers, sensitizer content was quantified spectrophotometrically. Distribution ratios were expressed as the uptake or retention of sensitizer in tumor relative to various normal tissues. Intensified digital fluorescence microscopy and/or confocal microscopy on frozen sections of the tumors, which were prepared from samples specified for this purpose, enabled us to assess intratumor sensitizer distributions.

Data set [2] is described as follows: Clearance from the serum by fluorescence. The data set is classed as in vivo, mice. As to conditions: fluorescence measurements, post-injection.
Procedure: BALB/c mice were treated with 5 mg/kg of photosensitizer 6 and the ear-swelling response (ESR) was determined at selected time-points.
For data set [3] the following is noted: 5 mg (5 μmole)/kg of 6; BALB/c mice bearing Colo-26 tumors; cited from earlier work.
The subject of the next data set is Colo-26 tumors. The data set is described as follows: PDT against implanted Colo-26 tumors in BALB/c mice. The data set is classed as in vivo. As to conditions: 6 at 3.25 mg (3.0 μmol)/kg and 694-nm light. How it is done: Core-modified porphyrin 6 gave a PDT response in vivo with 694-nm light in BALB/c mice bearing Colo-26 tumors. Animals treated with photosensitizer 6 at 3.25 mg (3.0 μmol)/kg and light required 10.3±0.8 d to reach 400-mm^3 tumor volume, which was more than double the time for control animals (4.3±1.0 d) receiving neither drug nor light (P <0.01).
The animals were irradiated 4 h post-injection with 135 J cm^−2 of 694-nm red light from a dye laser (75 mW cm^−2 for 30 min). […] For comparison purposes, BALB/C mice bearing Colo-26 tumors were given 2.5 mg (4.0 μmol)/kg of Photofrin® as a 5% aqueous dextrose solution and were irradiated 24 h later with 135 J cm^−2 of 630-nm laser light at a power of 75 mW cm^−2 for PDT with Photofrin®.
Animals initially were given i.v. (tail vein) injections of sensitizer at various concentrations (0.05to 5.0 μmol/kg). Mice were restrained at various times thereafter without anesthesia in specially designed holders. Fischer 344 female rats were chemically restrained at various times thereafter. In both models, tumors or normal back skin were exposed to light from a xenon arc lamp with appropriate filters or to a dye laser tuned to the absorption maximum determined by in vivo reflectance measurements. Power density of delivered light typically fell in the range of 10-200 mW cm^−2 evenly distributed to a spot size of roughly 1.5 cm and measured by a radiometer. Several dose rates were explored to examine role/limitation of available oxygen on the photodynamic process. Intratumor temperatures were measured with an Omega HYP-O microthermocouple and, when necessary, a stream of nitrogen gas was used to keep intratumor temperatures below 37° C. Animals were examined and measured daily for the first 14 days post treatment and every other day thereafter until the tumors reached 400 mm^3 in mice or until the tumors double in size for Fischer 344 female rats or for 90 days. Tumor size were measured in two dimensions with a caliper. Time to 400 mm^3 or volume doubling times of tumors from control and PDT-treated groups (8-12 animals per group) were compared statistically using the SAS statistical program (SAS, Inc., Cary, N.C.). A P-value of <0.05 is considered significant. The degree of damage to the normal skin within the irradiation field also were noted. Disappearance of tumor with minimal damage to normal skin is the most desirable response. Animals are considered cured if no tumor regrowth occurs by 90 days. In all studies, three control groups were utilized in addition to the treatment group receiving both sensitizer and light: 1) a complete control receiving neither drug nor light, 2) a group receiving sensitizer only, and 3) a group receiving light only. Representative animals from each of the treatment groups were processed for histology immediately, one day, or two weeks after irradiation. Step sections through the tumor were used to define the boundaries of tumor cell damage and death as a function of distance from the skin surface.

The subject of a further data set is BALB/c mice. The settings on record: mouse, in vivo, 10 mg/kg.
Data set [4] in a line: Rate of photobleaching in phosphate-buffered saline. The data set is classed as physicochemical. As to conditions: PBS; 570-750 nm light at 500 mW cm^−2; constant initial absorbance. An excerpt: One limitation of PDT dosimetry is the rate of photobleaching of the photosensitizer, which can be problematic with Photofrin® and even more problematic with the bacteriochlorins and the chlorins (such as HPPH).

Procedure for Colo-26 cells: In order to compare relative phototoxicity, the core-modified porphyrins of Table 1 were evaluated in culture for dark and light-induced toxicities toward Colo-26 cells, a murine colon carcinoma cell line.

Turning to “5,10,15,20-tetrakis(4-sulfonatophenyl)-21,23-dithiaporphyrin [Compound 6]”, the EC50 in the data set on Colo-26 cells (24 h incubation in dark, 4 J cm^−2 of 590-800 nm light, survival 24 h later, read-out: effective concentration to give 50% cell-kill of Colo-26 cells in vitro (EC50)) turned out to be 30 µM. In the data set on Colo-26 cells (dark, concentrations ≦100 μg/mL (≦100 μM)), the “dark toxicity toward Colo-26 cells” value was “negligible dark toxicity”. Also, in data set [1], the “tumor selectivity of uptake by fluorescence” value is “preferentially taken up by tumor”. The “time to clearance from the serum” value in data set [2] amounted to 7 days. In addition, the “concentration in tumor 24 h post-injection” value in data set [3] is 0.019±0.007 μg/g of protein. Moreover, in the data set with Colo-26 tumors, the “time to reach 400-mm^3 tumor volume” value stood at 10.3 ± 0.8 days. Further, the toxicity and morbidity result with BALB/c mice is “no toxicity, morbidity, or side effects were observed”. In addition, the “rate of photobleaching (kbleach)” value in data set [4] is reported as 0.84 ± 0.02 × 10^4 s^−1.
